Test [1] deals with Rattus norvegicus. The test is described as follows: Insulin release in rat pancreatic beta-cells after 15 minutes of administration at 1 mM was measured. It counts as functional.
Test [2] relates to Rattus norvegicus. Put plainly: Insulin release in rat pancreatic beta-cells after 15 minutes of administration of the K-salt of compound at 1 mM was measured. It counts as functional.
Test [3] has as its system Rattus norvegicus. Put plainly: Insulin release in rat pancreatic beta-cells after 15 minutes of administration of the Na-salt of compound at 1 mM was measured. It counts as functional.
The test system of test [4] is Rattus norvegicus. Put plainly: Insulin release in rat pancreatic beta-cells after 15 minutes of administration of the NH4-salt of compound at 1 mM was measured. Format: functional.
For test [5], the species on record is Rattus norvegicus. The test is described as follows: Acid dissociation constant was determined.
Test [6] concerns Rattus norvegicus. The test is described as follows: Insulin release in rat pancreatic beta-cells (PBS-rinsing of the islets) after 15 minutes of administration at 1 mM was measured. It counts as functional.

SMILES strings stand for the structures.

On to `O=c1[nH]cnc2nc[nH]c12` [HYPOXANTHINE], for which the Insulin release in test [1] is 8.44 ng/islet/h.
`O=C(O)c1nc(=O)[nH]c(=O)[nH]1` [OTERACIL] yielded an Insulin release in test [1] of 8.26 ng/islet/h.
`Cn1c(O)nc2[nH]c(=O)[nH]c(=O)c21` returned an Insulin release in test [1] of 8.04 ng/islet/h.
With `Cn1c(O)nc2c1C(=O)NC(O)N2.NC(N)N` (stereo not drawn), in test [1], the Insulin release turned out to be 8.55 ng/islet/h.
Take `Oc1nc(O)c2nc(O)[nH]c2n1` [URIC ACID]: the Insulin release is listed as 1.65 ng/islet/h in test [1], 1.68 ng/islet/h in test [2], 1.7 ng/islet/h in test [3] and 1.66 ng/islet/h in test [4]. In addition, in test [5], the pKa came to 5.4.
Take `CN1C(=O)c2nc(O)[nH]c2NC1O.NC(N)N` (stereo not drawn): the Insulin release in test [1] came to 8.75 ng/islet/h.
The same measure, in the same setting: for `O=c1[nH]c(=O)c2nn[nH]c2[nH]1` the value was 7.92 ng/islet/h; for `NC(N)N.O=C1NC(O)Nc2[nH]c(O)nc21` (stereo not drawn), 8.39 ng/islet/h.
In test [1], `Cn1c(=O)c2[nH]c(=O)[nH]c2n(C)c1=O` gave an Insulin release of 8.48 ng/islet/h.
Take `O=c1[nH]c(=O)c2nc[nH]c2[nH]1` [XANTHINE]: the Insulin release came out at 7.72 ng/islet/h in test [6] and 3.5 ng/islet/h in test [1]. In test [5], this molecule yielded a pKa of 7.7.
`Cn1c(=O)[nH]c2[nH]c(=O)[nH]c2c1=O` gave an Insulin release in test [1] of 7.92 ng/islet/h.
Turning to `O=C1NC(=O)C(O)(O)C(=O)N1`, the Insulin release in test [1] turned out to be 0.39 ng/islet/h.

Values taken from ChEMBL document CHEMBL1144331, “Uric acid may inhibit glucose-induced insulin secretion via binding to an essential arginine residue in rat pancreatic beta-cells” (2005).
